Results on one compound are retold here after EPA's ToxValDB 9.5 (doi:10.2903/j.efsa.2015.4279).

Bounds are passed on as bounds.

In data set [1] the test system is Tagia sp.
The test system of data set [2] is Colinus virginianus. The conditions noted are these: chronic.
The test system of data set [3] is Anas platyrhynchos. The conditions noted are these: acute; oral; unspecified; mortality.
For data set [4], the system named is Oncorhynchus mykiss. The conditions noted are these: chronic/long-term; duration: 95 days; growth.
The test system of data set [5] is Rattus norvegicus.
Data set [6] concerns Canidae. The conditions noted are these: oral, Dog Other, hematological.
The subject of data set [7] is Daphnia magna. The conditions noted are these: chronic/long-term; duration: 21 days; reproduction.
For data set [8], the system named is Apis mellifera. The conditions noted are these: acute; oral; unspecified; mortality.
Data set [9] has as its system Bibionidae. The conditions noted are these: chronic/long-term; duration: 28 days; development.
Data set [10] relates to Oryctolagus sp. The conditions noted are these: reproduction developmental; hematological.
For data set [11], the system named is Folsomia candida. The conditions noted are these: chronic/long-term.
Data set [12] has as its system Typhlodromus pyri. As to the kind of experiment: LR50; higher = less toxic. The conditions noted are these: not reported; mortality.

A word on the NOAEL: it is the highest dose or exposure tested at which no adverse effect was seen. For `O=C(Nc1ccc(F)cc1)c1cccc(Oc2cccc(C(F)(F)F)c2)n1` [Picolinafen], the LC50 in data set [1] (acute, duration: 14 days, mortality) is > 500 mg/kg. In addition, the NOEC was 1.68 mg/kg in data set [1] (chronic/long-term, duration: 8 weeks); 0.0064 mg/L in data set [4]; 0.007 mg/L in data set [7]; 0.18 mg/L in [9]; 250 mg/kg in data set [11]. In [2], the NOEL was 59.5 mg/kg-day. Besides, the LD50 is > 2250 mg/kg-day in [3]; > 5000 mg/kg-day in data set [5] (acute, mortality); > 200 µg/piece in [8]. For the same compound, the NOAEL in data set [5] (chronic) stood at 4 mg/kg-day; in [6] (chronic, duration: 1 years), 1.4 mg/kg-day; in [6] (subchronic, duration: 90 days), 5.2 mg/kg-day; in [10], 5 mg/kg-day. In data set [12], the LR50 was > 100 g/ha.
